Values after ≈ are worked out from the molar mass of the structure shown.
Test system: Mycobacterium tuberculosis
Experiment: Antibacterial activity against Mycobacterium tuberculosis H37Rv
Assay type: functional

First: CCCOc1ccc(NC(=S)Nc2ccc(OCCC)cc2)cc1
Second: CCCCOc1ccc(NC(=S)Nc2ccc(OCCC(C)C)cc2)cc1
The MIC99 of the first is higher: 0.2 µg/mL (≈ 0.581 µM) for the first, less than 0.1 µg/mL for the second.

Going from `CCCCOc1ccc(NC(=S)Nc2ccc(OCC(C)C)cc2)cc1` to `CC(C)CCOc1ccc(NC(=S)Nc2ccc(OCC(C)C)cc2)cc1`, the MIC99 rises from 0.1 µg/mL (≈ 0.268 µM) to 0.39 µg/mL (≈ 1.01 µM) (3.9-fold).

Compared with `CCCCOc1ccc(NC(=S)Nc2ccc(Cc3ccccc3)cc2)cc1`, `CC(C)CCOc1ccc(NC(=S)Nc2ccc(Cc3ccccc3)cc2)cc1` is 1.9-fold lower in MIC99: 0.39 µg/mL (≈ 0.999 µM) for the first, 0.2 µg/mL (≈ 0.494 µM) for the second.

`CCCCc1ccc(NC(=S)Nc2ccc(OCCC)cc2)cc1` and `CCCCOc1ccc(NC(=S)Nc2ccc(CCCC)cc2)cc1` cannot be ordered by MIC99: less than 0.1 µg/mL for the first, less than 0.1 µg/mL for the second.

Compared with `CCCSc1ccc(NC(=S)Nc2ccc(Cc3ccccc3)cc2)cc1`, `CCCCOc1ccc(NC(=S)Nc2ccc(SCCC)cc2)cc1` is 7.8-fold lower in MIC99: 1.56 µg/mL (≈ 3.97 µM) for the first, 0.2 µg/mL (≈ 0.534 µM) for the second.

First: CC(C)CCOc1ccc(NC(=S)Nc2ccc(OCCC(C)C)cc2)cc1 [TIOCARLIDE]
Second: CCCCOc1ccc(NC(=S)Nc2ccc(SCC(C)C)cc2)cc1
The MIC99 of the first is lower: 2 µg/mL (≈ 4.99 µM) for the first, greater than 6.25 µg/mL for the second.

Compound `CC(C)CSc1ccc(NC(=S)Nc2ccc(SCC(C)C)cc2)cc1` has an MIC99 of 0.78 µg/mL (≈ 1.93 µM).

Test system: Vero
Experiment: Selectivity index, IC50 against Vero cells/MIC against Mycobacterium
Assay type: functional

First: CCCOc1ccc(NC(=S)Nc2ccc(OCCC)cc2)cc1
Second: CCCCOc1ccc(NC(=S)Nc2ccc(OCCC(C)C)cc2)cc1
The Selectivity index of the first is lower: 44 for the first, 89 for the second.

Compared with `CCCCOc1ccc(NC(=S)Nc2ccc(OCC(C)C)cc2)cc1`, `CC(C)CCOc1ccc(NC(=S)Nc2ccc(OCC(C)C)cc2)cc1` is lower in Selectivity index: 79.9 for the first, 72 for the second.

First: CCCCOc1ccc(NC(=S)Nc2ccc(Cc3ccccc3)cc2)cc1
Second: CC(C)CCOc1ccc(NC(=S)Nc2ccc(Cc3ccccc3)cc2)cc1
The Selectivity index of the first is lower: 22.1 for the first, 48 for the second.

Going from `CCCCc1ccc(NC(=S)Nc2ccc(OCCC)cc2)cc1` to `CCCCOc1ccc(NC(=S)Nc2ccc(CCCC)cc2)cc1`, the Selectivity index falls from 100 to 87.

Compared with `CCCSc1ccc(NC(=S)Nc2ccc(Cc3ccccc3)cc2)cc1`, `CCCCOc1ccc(NC(=S)Nc2ccc(SCCC)cc2)cc1` is higher in Selectivity index: 5.28 for the first, 45.5 for the second.

First: CC(C)CCOc1ccc(NC(=S)Nc2ccc(OCCC(C)C)cc2)cc1 [TIOCARLIDE]
Second: CC(C)CSc1ccc(NC(=S)Nc2ccc(SCC(C)C)cc2)cc1
The Selectivity index of the first is higher: 82 for the first, 12.4 for the second.
